From the NIST ThermoML archive (doi:10.1016/j.jct.2015.12.018) come the findings set out here.

Numbers after ± are expanded uncertainties.

The data set can be described thus: molar enthalpy of vaporization or sublimation. Particulars: 298.15 K; Crystal; Static calorimetry.

As to `O=C1OCc2ccccc21` [1(3H)-isobenzofuranone], the molar enthalpy amounted to 21.1 ± 1.05 kcal/mol.

On to `O=C1OC(=O)c2ccccc21` [isobenzofuran-1,3-dione], for which the molar enthalpy was 21 ± 1.12 kcal/mol.
